Patent US9833497B2, “Human originated EGF domain proteins and use of the same” (CHENGDU SOURCEBIO LIMITED-LIABILITY COMPANY, priority 2013, dated 2017)

How the values were obtained:
Format in all cases: cell-based
Enterobacter cloacae = assay: MIC against Gram-negative bacteria: Enterobacter cloacae
Summary of the method: (§1)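 Broth microdilution, LB medium, final inoculum 5×10^5 CFU/mL from McFarland 0.5 cultures. Recombinant human EGF domain proteins tested in two-fold steps, n=3. MIC: lowest concentration, no growth.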

Serratia marcescens = assay: MIC against Gram-negative bacteria: Serratia marcescens
Summary of the method: as §1

Aeromonas hydrophila = assay: MIC against Gram-negative bacteria: Aeromonas hydrophila
Summary of the method: as §1

Citrobacter diversus = assay: MIC against Gram-negative bacteria: Citrobacter diversus
Summary of the method: as §1

Klebsiella pneumonia = assay: MIC against Gram-negative bacteria: Klebsiella pneumonia
Summary of the method: as §1

E. coli DH5α = assay: Antibacterial activity: MIC and growth curve against E. coli DH5α in 96-well plate; details: minimal inhibitory concentration against E. coli DH5α; 96-well plate, 5×10^5 CFU/mL, 37° C., judged after 8 h
Summary of the method: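 Log-phase bacteria (OD600 ~0.5) resuspended in LB at 5×10^5 CFU/mL, exposed to recombinant protein at 50, 25, 12.5 μg/mL final in triplicate, 37 °C shaking at 175 rpm. OD600 read every 30 min; MIC is lowest concentration showing no growth.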

Proteus mirabilis = assay: MIC against Gram-negative bacteria: Proteus mirabilis
Summary of the method: as §1

Proteus vulgaris = assay: MIC against Gram-negative bacteria: Proteus vulgaris
Summary of the method: as §1

Pseudomonas aeruginosa = assay: MIC against Gram-negative bacteria: Pseudomonas aeruginosa
Summary of the method: as §1

Moraxella catarrhalis = assay: MIC against Gram-negative bacteria: Moraxella catarrhalis
Summary of the method: as §1

E. coli BL21 = assay: MIC against Gram-negative bacteria: E. coli BL21
Summary of the method: as §1

[1] = 96-well plate, 5×10^5 CFU/mL, 37° C., 10 h

Substance: PRT983 (VARSCRELQCPVGVPCQQTPRGPRCACPPGLSGPSCR; listed as Homo sapiens)
- MIC (Enterobacter cloacae; E. cloacae, 10 h cultivation at 37° C.): 12.5 µg/mL
- MIC (Serratia marcescens; S. marcescens, 10 h cultivation at 37° C.): 25 µg/mL
- MIC (Aeromonas hydrophila; A. hydrophila, 10 h cultivation at 37° C.): 25 µg/mL
- MIC (Citrobacter diversus; C. diversus, 10 h cultivation at 37° C.): 50 µg/mL
- MIC (Klebsiella pneumonia; K. pneumonia, 10 h cultivation at 37° C.): 50 µg/mL
- MIC (E. coli DH5α): 25 µg/mL
- MIC (Proteus mirabilis; P. mirabilis, 10 h cultivation at 37° C.): 50 µg/mL
- MIC (Proteus vulgaris; P. vulgaris, 10 h cultivation at 37° C.): 12.5 µg/mL
- MIC (Pseudomonas aeruginosa; P. aeruginosa, 10 h cultivation at 37° C.): 25 µg/mL
- MIC (Moraxella catarrhalis; M. catarrhalis, 10 h cultivation at 37° C.): 12.5 µg/mL
- MIC (E. coli BL21; E. coli BL21, 10 h cultivation at 37° C.): 12.5 µg/mL

Substance: PRT662 (RIYFCQIPCLNGGRCIGRDECWCPANSTGKFCH; listed as Homo sapiens)
- MIC E. cloacae (Enterobacter cloacae; [1]): 25 µg/mL
- MIC S. marcescens (Serratia marcescens; [1]): 50 µg/mL
- MIC A. hydrophila (Aeromonas hydrophila; [1]): 12.5 µg/mL
- MIC C. diversus (Citrobacter diversus; [1]): 25 µg/mL
- MIC K. pneumonia (Klebsiella pneumonia; [1]): 50 µg/mL
- MIC (E. coli DH5α): 25 µg/mL
- MIC P. mirabilis (Proteus mirabilis; [1]): 50 µg/mL
- MIC P. vulgaris (Proteus vulgaris; [1]): 12.5 µg/mL
- MIC P. aeruginosa (Pseudomonas aeruginosa; [1]): 25 µg/mL
- MIC M. catarrhalis (Moraxella catarrhalis; [1]): 25 µg/mL
- MIC E. coli BL21 (E. coli BL21; [1]): 12.5 µg/mL

Substance: PRT450 (KCLCPLGFLLANDSKTCEDIDE; listed as Homo sapiens)
- MIC against E. cloacae (Enterobacter cloacae; [1]): 12.5 µg/mL
- MIC against S. marcescens (Serratia marcescens; [1]): 12.5 µg/mL
- MIC against A. hydrophila (Aeromonas hydrophila; [1]): 50 µg/mL
- MIC against C. diversus (Citrobacter diversus; [1]): 12.5 µg/mL
- MIC against K. pneumonia (Klebsiella pneumonia; [1]): 50 µg/mL
- MIC (E. coli DH5α): 12.5 µg/mL
- MIC against P. mirabilis (Proteus mirabilis; [1]): 12.5 µg/mL
- MIC against P. vulgaris (Proteus vulgaris; [1]): 50 µg/mL
- MIC against P. aeruginosa (Pseudomonas aeruginosa; [1]): 12.5 µg/mL
- MIC against M. catarrhalis (Moraxella catarrhalis; [1]): 50 µg/mL
- MIC against E. coli BL21 (E. coli BL21; [1]): 12.5 µg/mL

Substance: PRT490 (CASAPCRNGGVCREGWNRFICDCIGTGFLGRVCE; listed as Homo sapiens)
- MIC against E. cloacae (Enterobacter cloacae; [1]): 25 µg/mL
- MIC against S. marcescens (Serratia marcescens; [1]): 25 µg/mL
- MIC against A. hydrophila (Aeromonas hydrophila; [1]): 50 µg/mL
- MIC against C. diversus (Citrobacter diversus; [1]): 25 µg/mL
- MIC against K. pneumonia (Klebsiella pneumonia; [1]): 12.5 µg/mL
- MIC (E. coli DH5α): 25 µg/mL
- MIC against P. mirabilis (Proteus mirabilis; [1]): 25 µg/mL
- MIC against P. vulgaris (Proteus vulgaris; [1]): 50 µg/mL
- MIC against P. aeruginosa (Pseudomonas aeruginosa; [1]): 25 µg/mL
- MIC against M. catarrhalis (Moraxella catarrhalis; [1]): 12.5 µg/mL
- MIC against E. coli BL21 (E. coli BL21; [1]): 50 µg/mL

Substance: PRT226 (DIDECESGAHQCSEAQTCVNFHGGYRCVDTNRCVEPYIQVSENRCL; listed as Homo sapiens)
- MIC (μg/mL) E. cloacae (Enterobacter cloacae; E. cloacae, 10 h cultivation at 37° C., 5×10^5 CFU/mL): 50 µg/mL
- MIC (μg/mL) S. marcescens (Serratia marcescens; S. marcescens, 10 h cultivation at 37° C., 5×10^5 CFU/mL): 12.5 µg/mL
- MIC (μg/mL) A. hydrophila (Aeromonas hydrophila; A. hydrophila, 10 h cultivation at 37° C., 5×10^5 CFU/mL): 12.5 µg/mL
- MIC (μg/mL) C. diversus (Citrobacter diversus; C. diversus, 10 h cultivation at 37° C., 5×10^5 CFU/mL): 50 µg/mL
- MIC (μg/mL) K. pneumonia (Klebsiella pneumonia; K. pneumonia, 10 h cultivation at 37° C., 5×10^5 CFU/mL): 25 µg/mL
- MIC (E. coli DH5α): 50 µg/mL
- MIC (μg/mL) P. mirabilis (Proteus mirabilis; P. mirabilis, 10 h cultivation at 37° C., 5×10^5 CFU/mL): 12.5 µg/mL
- MIC (μg/mL) P. vulgaris (Proteus vulgaris; P. vulgaris, 10 h cultivation at 37° C., 5×10^5 CFU/mL): 12.5 µg/mL
- MIC (μg/mL) P. aeruginosa (Pseudomonas aeruginosa; P. aeruginosa, 10 h cultivation at 37° C., 5×10^5 CFU/mL): 12.5 µg/mL
- MIC (μg/mL) M. catarrhalis (Moraxella catarrhalis; M. catarrhalis, 10 h cultivation at 37° C., 5×10^5 CFU/mL): 12.5 µg/mL
- MIC (μg/mL) E. coli BL21 (E. coli BL21; E. coli BL21, 10 h cultivation at 37° C., 5×10^5 CFU/mL): 25 µg/mL

Substance: PRT453 (DINECEQFGTCPQHCRNTKGSYECVCADGFT; listed as Homo sapiens)
- MIC against E. cloacae (Enterobacter cloacae; [1]): 25 µg/mL
- MIC against S. marcescens (Serratia marcescens; [1]): 25 µg/mL
- MIC against A. hydrophila (Aeromonas hydrophila; [1]): 12.5 µg/mL
- MIC against C. diversus (Citrobacter diversus; [1]): 25 µg/mL
- MIC against K. pneumonia (Klebsiella pneumonia; [1]): 50 µg/mL
- MIC (E. coli DH5α): 25 µg/mL
- MIC against P. mirabilis (Proteus mirabilis; [1]): 25 µg/mL
- MIC against P. vulgaris (Proteus vulgaris; [1]): 12.5 µg/mL
- MIC against P. aeruginosa (Pseudomonas aeruginosa; [1]): 25 µg/mL
- MIC against M. catarrhalis (Moraxella catarrhalis; [1]): 50 µg/mL
- MIC against E. coli BL21 (E. coli BL21; [1]): 12.5 µg/mL

Substance: PRT1391 (PLPVCQEQCSGHGTFLLDAGVCSCDPKWTGSDCS; listed as Homo sapiens)
- MIC against E. cloacae (Enterobacter cloacae; Enterobacter cloacae, 5×10^5 CFU/mL, 10 h cultivation at 37° C.): 12.5 µg/mL
- MIC against S. marcescens (Serratia marcescens; Serratia marcescens, 5×10^5 CFU/mL, 10 h cultivation at 37° C.): 12.5 µg/mL
- MIC against A. hydrophila (Aeromonas hydrophila; Aeromonas hydrophila, 5×10^5 CFU/mL, 10 h cultivation at 37° C.): 12.5 µg/mL
- MIC against C. diversus (Citrobacter diversus; Citrobacter diversus, 5×10^5 CFU/mL, 10 h cultivation at 37° C.): 12.5 µg/mL
- MIC against K. pneumonia (Klebsiella pneumonia; Klebsiella pneumonia, 5×10^5 CFU/mL, 10 h cultivation at 37° C.): 12.5 µg/mL
- MIC (E. coli DH5α): 12.5 µg/mL
- MIC against P. mirabilis (Proteus mirabilis; Proteus mirabilis, 5×10^5 CFU/mL, 10 h cultivation at 37° C.): 12.5 µg/mL
- MIC against P. vulgaris (Proteus vulgaris; Proteus vulgaris, 5×10^5 CFU/mL, 10 h cultivation at 37° C.): 12.5 µg/mL
- MIC against P. aeruginosa (Pseudomonas aeruginosa; Pseudomonas aeruginosa, 5×10^5 CFU/mL, 10 h cultivation at 37° C.): 12.5 µg/mL
- MIC against M. catarrhalis (Moraxella catarrhalis; Moraxella catarrhalis, 5×10^5 CFU/mL, 10 h cultivation at 37° C.): 12.5 µg/mL
- MIC against E. coli BL21 (E. coli BL21; E. coli BL21, 5×10^5 CFU/mL, 10 h cultivation at 37° C.): 12.5 µg/mL
